Laboratory results from paper PMC12166061, “Crystallographic fragment screening reveals ligand hotspots in TRIM21 PRY-SPRY domain” (Communications Chemistry, 2025).
Read-outs that look alike come from different tables or passages of the source.

Legend:
[1] = target: T1, full-length hTRIM21 with C-terminal NanoLuc fusion (Homo sapiens, UniProt P19474); conditions: for tracer displacement: compound at 500 µM, NanoBRET; for cell permeability: inferred from intact versus lysed NanoBRET
Method: (§4) Full-length hTRIM21 with N- or C-terminal NanoLuc fusion was transfected into HEK293T cells (ATCC) using Fugene 4K (Promega, Cat. No. E5911) transfection reagent according to the manufacturer’s instructions. Following protein expression for 24 h, cells were split again in OptiMEM medium (phenol red free, Life Technologies) to a final amount of 2 × 10^5 cells per mL and 10 µL per well were distributed in a 384 well plate. Next, tracer AL244 (2) was added in concentrations from 3 µM to 6 nM. […] Then, cells were permeabilized through the addition of 25 nL Digitonin (0.05 µg µL^−1). Following another 5-min incubation, filtered luminescence was measured again. The data acquired in the tracer titration was converted into mBRET units (Fluorescence intensity at 610 nm / Luminescence intensity at 450 nm) × 1000 and graphed using Graph-Pad Prism v.9 software.
(§5) A 384-well plate with cells expressing hTRIM21-NLuc was prepared as described above. […] Then, cells were permeabilized with Digitonin and, following 5 min of incubation, filtered luminescence was measured. The data acquired in the competition experiments were converted to mBRET units, then normalized to the positive and negative control and graphed using Graph-Pad Prism v.9 software using a normalized three-parameter curve fit using the following equation: y = 100/[1 + 10(x − logIC50)].

[2] = target: T1, full-length hTRIM21 with C-terminal NanoLuc fusion; assay: cell-based; conditions: tracer AL244 (2)
Method: as §4, §5

TRIM21 [3] = conditions: human TRIM21; read-out: affinity; cited from earlier work
His-mTRIM21 PRYSPRY = target: T2, His-mTRIM21 PRYSPRY (Mus musculus, UniProt Q62191); assay: SPR fragment screening and dose response, mouse TRIM21 PRY-SPRY; type: binding
T2 construct: mouse TRIM21 PRY-SPRY domain (residues V291-M470, UniProt-ID: Q62191); made in house; host or cells: E. coli BL21(DE3)
T2 sequence (Q62191 291-470): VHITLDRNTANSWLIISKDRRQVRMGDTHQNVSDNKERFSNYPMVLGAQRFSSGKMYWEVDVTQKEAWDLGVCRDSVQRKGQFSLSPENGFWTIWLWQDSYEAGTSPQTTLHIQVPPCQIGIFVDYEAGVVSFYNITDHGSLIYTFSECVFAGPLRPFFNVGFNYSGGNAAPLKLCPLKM
Method: (§1) His-mTRIM21 PRYSPRY and His-SUMO-hTRIM21 PRY-SPRY were immobilized onto flow channels (FC) FC2, FC3, and FC4 of a Series S sensor chip NTA (Cytiva). […] Proteins (10–20 µg mL^−1 in HBS-P+) were injected at 10 µL min^−1 to achieve response levels of 3500–4300 RU for mTRIM21 and 3600–4000 RU for hTRIM21. Flow channel 1 (FC1) was used as a reference surface. Surface deactivation and nickel stripping were achieved using 1 M ethanolamine and 350 mM ethylenediaminetetraacetic acid (EDTA), respectively.
(§2) Fragment screening was conducted by injecting 500 µM fragments diluted in running buffer (HBS-P+ with 1 mM TCEP and 2% (v/v) dimethyl sulfoxide (DMSO)) over all flow-channels for 30 s at 30 µL/min^−1. To account for surface drift, 50 µM of a control compound (Suramin) was injected every 15 fragment injections, and blank injections were performed every 5 fragments. Responses were analyzed by blank subtraction, reference subtraction (FC1), solvent correction, molecular weight adjustment, and drift correction using Biacore T200 Evaluation Software v3.2.1. The binding threshold for fragment hits was set based on the Suramin-binding response level.
The data was solvent-corrected, reference-subtracted (FC1), and blank-subtracted using the T200 Evaluation Software v3.2.1. Sensorgrams were subsequently replotted using Graphpad v.9 software.

TRIM21 PRY-SPRY domain = assay: DSF ΔTm of control suramin, species not stated; type: binding; conditions: at the screening concentration
Method: (§3) Briefly, recombinant murine and human TRIM21 PRY-SPRY domain at a concentration of 8 μM were mixed with 2 mM compound in their respective SEC buffer. SYPRO Orange (5000×, Invitrogen) was added as a fluorescence probe (1 µl per mL). Subsequently, temperature-dependent protein unfolding profiles were measured using the QuantStudio™ 5 realtime PCR machine (Thermo Fisher). Excitation and emission filters were set to 465 nm and 590 nm, respectively. The temperature was raised with a step rate of 3 °C per minute. Data points were analysed with the internal software (Thermal Shift SoftwareTM Version 1.4, Thermo Fisher) using the Boltzmann equation to determine the inflection point of the transition curve.

TRIM21 [4] = conditions: mouse TRIM21; read-out: affinity; cited from earlier work
[5] = target: T3, murine TRIM21 PRY-SPRY domain (Mus musculus, UniProt Q62191); assay: Differential scanning fluorimetry (DSF, ΔTm), mouse TRIM21 PRY-SPRY domain; type: binding
T3 construct: mouse TRIM21 PRY-SPRY domain (residues V291-M470, UniProt-ID: Q62191); made in house; host or cells: E. coli BL21(DE3)
T3 sequence (Q62191 291-470): T2 sequence (Q62191 291-470)
Method: as §3

[6] = target: T4, human TRIM21 PRY-SPRY domain (Homo sapiens, UniProt P19474); assay: Differential scanning fluorimetry (DSF, ΔTm), human TRIM21 PRY-SPRY domain; type: binding
T4 construct: Human TRIM21 PRY-SPRY domain (residues V287-I465, UniProt-ID: P19474); His6 (N, cleaved yes); SUMO (N, cleaved yes); made in house; host or cells: E. coli BL21(DE3)
T4 sequence (P19474 287-465): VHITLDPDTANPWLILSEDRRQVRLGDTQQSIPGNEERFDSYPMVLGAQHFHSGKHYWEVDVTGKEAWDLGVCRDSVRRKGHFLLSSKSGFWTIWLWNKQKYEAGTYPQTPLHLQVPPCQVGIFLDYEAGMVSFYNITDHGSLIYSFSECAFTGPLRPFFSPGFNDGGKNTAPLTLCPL
Method: as §3

[7] = target: T5, His-SUMO-hTRIM21 PRY-SPRY (Homo sapiens, UniProt P19474); assay: SPR fragment screening, human TRIM21 PRY-SPRY; type: binding
T5 construct: Human TRIM21 PRY-SPRY domain (residues V287-I465, UniProt-ID: P19474); made in house; host or cells: E. coli BL21(DE3)
T5 sequence (P19474 287-465): as above
Method: as §1, §2

[8] = single dose 500 µM fragment, relative response, suramin reference threshold 100 relative RU

T1 sequence (P19474 whole entry, the tested form may be a part): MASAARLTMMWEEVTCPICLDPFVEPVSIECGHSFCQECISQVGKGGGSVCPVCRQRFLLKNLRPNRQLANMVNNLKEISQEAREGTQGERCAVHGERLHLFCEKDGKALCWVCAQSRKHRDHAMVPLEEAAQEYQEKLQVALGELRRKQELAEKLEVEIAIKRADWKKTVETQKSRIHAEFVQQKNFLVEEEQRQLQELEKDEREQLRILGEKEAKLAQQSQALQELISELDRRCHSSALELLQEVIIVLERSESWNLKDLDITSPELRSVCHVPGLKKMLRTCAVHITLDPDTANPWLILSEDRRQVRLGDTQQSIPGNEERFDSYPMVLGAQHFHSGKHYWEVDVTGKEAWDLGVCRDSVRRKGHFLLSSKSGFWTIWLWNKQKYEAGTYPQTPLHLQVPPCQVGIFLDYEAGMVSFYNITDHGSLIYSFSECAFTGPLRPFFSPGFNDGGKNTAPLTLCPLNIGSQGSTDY

Structure (SMILES)	Tm-shift mTRIM21 ([5]; 2 mM compound, 8 μM protein)	Tm-Shift hTRIM21 ([6]; 2 mM compound, 8 μM protein)	SPR hTRIM21 (Response) [7, 8]	SPR mTRIM21 (Response) (His-mTRIM21 PRYSPRY; [8])	other results
CN(CCCCNS(=O)(=O)c1ccc(N)cc1)C(=O)c1cccs1 [AL266 (4)]	–	–	–	–	tracer displacement [1]: no activity
CSc1cc(F)ccc1-c1ccc(C(=O)NCC2CCCCC2)c(S(C)(=O)=O)c1 [AL236 (1)]	–	–	–	–	cell permeability [1]: high cell permeability; EC50 ([2]; NanoBRET EC50 (intact), intact (live) HEK293T cells): 0.197 µM; EC50 ([2]; NanoBRET EC50 (lysed), permeabilized (lysed mode, digitonin) cells): 0.297 µM
Cc1ccc(C(=O)Nc2ccc(S(=O)(=O)O)c3cc(S(=O)(=O)O)cc(S(=O)(=O)O)c23)cc1NC(=O)c1cccc(NC(=O)Nc2cccc(C(=O)Nc3cc(C(=O)Nc4ccc(S(=O)(=O)O)c5cc(S(=O)(=O)O)cc(S(=O)(=O)O)c45)ccc3C)c2)c1 [suramin]	–	–	–	–	Kd (TRIM21 [3]): ~10 µM; SPR response of reference (His-mTRIM21 PRYSPRY; suramin injected at 50 µM as reference, species not stated): 100 relative RU; ΔTm shift (TRIM21 PRY-SPRY domain): 2.3 °C; Kd (TRIM21 [4]): ~10 µM
CCNC1CCN(c2ccncc2)CC1 [Fragment Z2065616520]	0.4 °C	0.6 °C	–	–	tracer displacement [1]: ~ 40%
O=C(O)C1CCCN(C(=O)Cc2ccc(F)cc2)C1 (centres unmarked) [Fragment Z85893853]	-0.4 °C	-0.1 °C	49.09	60.46	–
CC(C)N(C)c1ncnc2c1cnn2C [Fragment Z328695024]	-0.6 °C	-0.6 °C	48.11	47.77	–
Cc1cccc(C(=O)N2CCC(C(N)=O)CC2)c1 [Fragment Z32400357]	-0.4 °C	-0.1 °C	52.75	57.58	–
CCOC(=O)CN1CCS(=O)(=O)CC1 [Fragment Z793778804]	0 °C	0.1 °C	29.17	30.52	–
O=C(CN1CCCC1=O)Nc1nccs1 [Fragment Z79432418]	–	–	–	–	Tm-shift mTRIM21 [5]: -0.4 °C; SPR hTRIM21 (Response) [7]: 61.55; Tm-Shift hTRIM21 [6]: -0.3 °C; SPR mTRIM21 (Response) (His-mTRIM21 PRYSPRY): 63.39
CCC(=O)N1CCCC(NS(C)(=O)=O)C1 (centres unmarked) [Fragment Z405825414]	-0.2 °C	0 °C	27.61	27.91	–
NS(=O)(=O)c1ccccc1OC(F)F [Fragment Z1003146540]	-0.1 °C	0.5 °C	38.84	35.49	–
CC#CCN(C)C1CCS(=O)(=O)CC1 [Fragment Z1318110042]	0.1 °C	0 °C	20.83	68.46	–
O=C(NC1CC1)c1ccc2c(c1)OCO2 [Fragment Z32367954]	–	–	–	–	Tm-shift mTRIM21 [5]: -0.3 °C; SPR hTRIM21 (Response) [7]: 68.73; Tm-Shift hTRIM21 [6]: -0.6 °C; SPR mTRIM21 (Response) (His-mTRIM21 PRYSPRY): 59.37
CNS(=O)(=O)Cc1cc(C)on1 [Fragment Z763030030]	–	–	–	–	Tm-shift mTRIM21 [5]: -0.2 °C; SPR hTRIM21 (Response) [7]: 44.17; Tm-Shift hTRIM21 [6]: -0.1 °C; SPR mTRIM21 (Response) (His-mTRIM21 PRYSPRY): 42.23
CCCn1c(NC(=O)CC)nc2ccccc21 [Fragment Z29077827]	-0.6 °C	-0.7 °C	48.46	54.53	–
Cc1c(Cl)cccc1NC(=O)[C@@H]1CCCO1 [Fragment Z1545312521]	-0.9 °C	-0.7 °C	24.5	31.58	–
Cc1cc(N2CCNCC2)nc(C)n1 [Fragment Z274575916]	0 °C	0.2 °C	76.44	164.1	–
OC1CN(C(c2ccccc2)c2ccccc2)C1 [Fragment Z1696844792]	-0.5 °C	-0.8 °C	122.6	107.8	–
CC(=O)N1CCCC(CNS(C)(=O)=O)C1 (centres unmarked) [Fragment Z438096750]	0 °C	-0.2 °C	40.93	42.61	–
CS(=O)(=O)Cc1nc2ccccc2[nH]1 [Fragment Z126932614]	-0.1 °C	-0.2 °C	80.74	65.26	–
CCn1cc(NC(=O)C2CCC2)cn1 [Fragment Z373768900]	–	–	–	–	Tm-shift mTRIM21 [5]: -0.4 °C; SPR hTRIM21 (Response) [7]: 21.88; Tm-Shift hTRIM21 [6]: -0.3 °C; SPR mTRIM21 (Response) (His-mTRIM21 PRYSPRY): 20.02
O=C(Nc1ccc(S(=O)(=O)Nc2ccccn2)cc1)c1ccccc1 [AL257 (3)]	–	–	–	–	tracer displacement [1]: displaced the tracer almost completely; cell permeability [1]: effective cell penetration; EC50 ([2]; NanoBRET EC50 (intact), intact HEK293T cells): 143 µM; EC50 ([2]; NanoBRET EC50 (lysed), lysed cells (digitonin)): 246 µM
